Results: ChEMBL document CHEMBL5376002, “A Hybrid Antimicrobial Peptide Targeting Staphylococcus aureus with a Dual Function of Inhibiting Quorum Sensing Signaling and an Antibacterial Effect” (J Med Chem, 2023)
pKd: −log10 of the molar value. ≈ marks a conversion by molar mass, not a printed value. Calls of active or inactive are those of the source. The calls are words filed in the database; no cut-off is given here. Bridge positions count the residues as written; N and C are the ends. Square brackets hold non-standard residues; d marks the D form. Peptide text beside a SMILES is read from it. Dab = NCC[C@H](N)C(=O)O

Key:
Streptococcus pneumoniae [1] = assay: Antibacterial activity against Streptococcus pneumoniae ATCC 49619 assessed as inhibition of bacterial growth incubated for 18 to 24 hrs; type: functional; conditions: time 18-24 hrs
Staphylococcus aureus [2] = assay: Bactericidal activity against Staphylococcus aureus ATCC 12600 assessed as inhibition of bacterial growth incubated for 18 to 24 hrs; type: functional; conditions: time 18-24 hrs
[3] = system: Staphylococcus epidermidis; assay: Antibacterial activity against Staphylococcus epidermidis ATCC 12228 assessed as inhibition of bacterial growth incubated for 18 to 24 hrs; type: functional; conditions: time 18-24 hrs
[4] = system: Staphylococcus saprophyticus; assay: Bactericidal activity against Staphylococcus saprophyticus ATCC BAA-750 assessed as inhibition of bacterial growth incubated for 18 to 24 hrs; type: functional; conditions: time 18-24 hrs
Streptococcus pneumoniae [5] = assay: Bactericidal activity against Streptococcus pneumoniae ATCC 49619 assessed as inhibition of bacterial growth incubated for 18 to 24 hrs; type: functional; conditions: time 18-24 hrs
[6] = Toxicity in Kunming mouse infected with Staphylococcus aureus ATCC 6538p assessed as animal survival rate 5 mg/kg, ip pre-infected with bacteria for 1 hr followed by compound administration and measured after 7 days; type: organism-based; conditions: in vivo, 168 h, time 7 day
Streptococcus mutans [7] = assay: Antibacterial activity against Streptococcus mutans UA159 assessed as inhibition of bacterial growth incubated for 18 to 24 hrs; type: functional; conditions: time 18-24 hrs
Staphylococcus aureus [8] = assay: Bactericidal activity against Staphylococcus aureus ATCC 6538p assessed as inhibition of bacterial growth incubated for 18 to 24 hrs; type: functional; conditions: time 18-24 hrs
[9] = system: Staphylococcus epidermidis; assay: Bactericidal activity against Staphylococcus epidermidis ATCC 12228 assessed as inhibition of bacterial growth incubated for 18 to 24 hrs; type: functional; conditions: time 18-24 hrs
Cell membrane = assay: Induction of cell membrane damage in Staphylococcus aureus ATCC 6538p assessed as increase in nucleic acid leakage measured up to 30 mins by UV-spectrophotometer analysis; type: subcellular
Staphylococcus aureus [10] = assay: Bactericidal activity against Staphylococcus aureus ATCC 43300 assessed as inhibition of bacterial growth incubated for 18 to 24 hrs; type: functional; conditions: time 18-24 hrs
[11] = system: Staphylococcus saprophyticus; assay: Antibacterial activity against Staphylococcus saprophyticus ATCC BAA-750 assessed as inhibition of bacterial growth incubated for 18 to 24 hrs; type: functional; conditions: time 18-24 hrs
Staphylococcus aureus [12] = assay: Antibacterial activity against Staphylococcus aureus ATCC 43300 assessed as inhibition of bacterial growth incubated for 18 to 24 hrs; type: functional; conditions: time 18-24 hrs
Staphylococcus aureus [13] = assay: Antibacterial activity against Staphylococcus aureus ATCC 12600 assessed as inhibition of bacterial growth incubated for 18 to 24 hrs; type: functional; conditions: time 18-24 hrs
Streptococcus mutans [14] = assay: Antibacterial activity against Streptococcus mutans ATCC 25175 assessed as inhibition of bacterial growth incubated for 18 to 24 hrs; type: functional; conditions: time 18-24 hrs
Escherichia coli = assay: Antibacterial activity against Escherichia coli ATCC 25922 assessed as inhibition of bacterial growth incubated for 18 to 24 hrs; type: functional; conditions: time 18-24 hrs
Staphylococcus aureus [15] = assay: Antibacterial activity against Staphylococcus aureus ATCC 6538p assessed as inhibition of bacterial growth incubated for 18 to 24 hrs; type: functional; conditions: time 18-24 hrs
[16] = Binding affinity to AgrC-I extra-loop-II (unknown origin) assessed as dissociation constant incubated for 10 mins by isothermal titration calorimetry analysis
Staphylococcus aureus [17] = assay: Inhibition of biofilm formation in Staphylococcus aureus at 0.78 to 1.56 uM incubated for 24 hrs by crystal violet staining based analysis; type: functional, organism-based; conditions: dose 0.78-1.56 µM
RAW264.7 [18] = assay: Cytotoxicity against mouse RAW264.7 cells assessed as cell viability upto 125 uM incubated for 48 hrs by MTT assay; type: functional, cell-based
RAW264.7 [19] = assay: Cytotoxicity against mouse RAW264.7 cells assessed as cell viability incubated for 48 hrs by MTT assay; type: functional
Erythrocyte = assay: Hemolytic activity in rat RBC assessed as hemolysis measured after 20 hrs; type: toxicity, cell-based
Homo sapiens [20] = organism: Homo sapiens; assay: Binding affinity to AgrC-I extra-loop-I (unknown origin) assessed as gibbs free energy change incubated for 10 mins by isothermal titration calorimetry analysis
[21] = Binding affinity to AgrC-I extra-loop-II (unknown origin) assessed as change in enthalpy incubated for 10 mins by isothermal titration calorimetry analysis
[22] = Inhibition of quorum sensing system in Staphylococcus saprophyticus ATCC BAA-750 assessed as downregulation of RNAIII expression level at 1 to 100 uM incubated for 24 hrs by qRT-PCR analysis; conditions: dose 1-100 µM
Staphylococcus aureus [23] = assay: Inhibition of biofilm formation in Staphylococcus aureus incubated for 24 hrs by crystal violet staining based microscopic analysis; type: functional, organism-based
Staphylococcus aureus [24] = assay: Antivirulence activity against Staphylococcus aureus assessed as downregulation of psm-alpha expression level at 1 to 100 uM incubated for 24 hrs by qRT-PCR analysis; type: functional, organism-based; conditions: dose 1-100 µM
[25] = Binding affinity to AgrC-I extra-loop-I (unknown origin) assessed as dissociation constant incubated for 10 mins by isothermal titration calorimetry analysis
[26] = Binding affinity to AgrC-I extra-loop-III (unknown origin) assessed as change in enthalpy incubated for 10 mins by isothermal titration calorimetry analysis
Staphylococcus aureus [27] = assay: Antivirulence activity against Staphylococcus aureus assessed as downregulation of hla expression level at 1 to 100 uM incubated for 24 hrs by qRT-PCR analysis; type: functional, organism-based; conditions: dose 1-100 µM
Staphylococcus aureus [28] = assay: Antivirulence activity against Staphylococcus aureus ATCC 6538p assessed as downregulation of RNAIII expression level at 2.5 uM measured for 28 passages by qRT-PCR analysis; type: functional, organism-based
[29] = Inhibition of quorum sensing system in Staphylococcus aureus ATCC 6538p assessed as downregulation of RNAIII expression level incubated for 24 hrs by qRT-PCR analysis; conditions: dose 1-100 µM
Staphylococcus aureus [30] = assay: Inhibition of biofilm formation in Staphylococcus aureus at 0.39 uM incubated for 24 hrs by crystal violet staining based analysis; type: functional, organism-based
Staphylococcus aureus [31] = assay: Antivirulence activity against Staphylococcus aureus assessed as downregulation of RNAIII expression level at 1 to 100 uM incubated for 24 hrs by qRT-PCR analysis; type: functional, organism-based; conditions: dose 1-100 µM
Staphylococcus aureus [32] = assay: Bactericidal activity against Staphylococcus aureus assessed as inhibition of bacterial growth at 31.25 uM incubated for 120 mins; type: functional, organism-based
[33] = Inhibition of quorum sensing system in Staphylococcus epidermidis ATCC 12228 assessed as downregulation of RNAIII expression level at 1 to 100 uM incubated for 24 hrs by qRT-PCR analysis; conditions: dose 1-100 µM
Homo sapiens [34] = organism: Homo sapiens; assay: Binding affinity to AgrC-I extra-loop-II (unknown origin) assessed as gibbs free energy change incubated for 10 mins by isothermal titration calorimetry analysis
[35] = Binding affinity to AgrC-I extra-loop-I (unknown origin) assessed as change in enthalpy incubated for 10 mins by isothermal titration calorimetry analysis
Homo sapiens [36] = organism: Homo sapiens; assay: Binding affinity to AgrC-I extra-loop-III (unknown origin) assessed as gibbs free energy change incubated for 10 mins by isothermal titration calorimetry analysis
[37] = Binding affinity to AgrC-I extra-loop-III (unknown origin) assessed as dissociation constant incubated for 10 mins by isothermal titration calorimetry analysis

CN[C@H](CC(C)C)C(=O)N[C@H]1C(=O)N[C@@H](CC(N)=O)C(=O)N[C@H]2C(=O)N[C@H]3C(=O)N[C@H](C(=O)N[C@H](C(=O)O)c4cc(O)cc(O)c4-c4cc3ccc4O)[C@H](O)c3ccc(c(Cl)c3)Oc3cc2cc(c3O[C@@H]2O[C@H](CO)[C@@H](O)[C@H](O)[C@H]2O[C@H]2C[C@](C)(N)[C@H](O)[C@H](C)O2)Oc2ccc(cc2Cl)[C@H]1O [VANCOMYCIN]
MIC (Streptococcus pneumoniae [1]): 0.19 µM (≈ 0.275 µg/mL) | MBC (Staphylococcus aureus [2]): 0.39 µM (≈ 0.565 µg/mL) | MIC [3]: 0.39 µM (≈ 0.565 µg/mL) | MBC [4]: 0.39 µM (≈ 0.565 µg/mL) | MBC (Streptococcus pneumoniae [5]): 0.19 µM (≈ 0.275 µg/mL) | Activity [6]: 90% | MIC (Streptococcus mutans [7]): > 100 µM | MBC (Staphylococcus aureus [8]): 0.39 µM (≈ 0.565 µg/mL) | MBC [9]: 0.39 µM (≈ 0.565 µg/mL) | Activity (Cell membrane): inactive | MBC (Staphylococcus aureus [10]): 0.39 µM (≈ 0.565 µg/mL) | MIC [11]: 0.39 µM (≈ 0.565 µg/mL) | MIC (Staphylococcus aureus [12]): 0.39 µM (≈ 0.565 µg/mL) | MIC (Staphylococcus aureus [13]): 0.39 µM (≈ 0.565 µg/mL) | MIC (Streptococcus mutans [14]): > 100 µM | MIC (Escherichia coli): > 100 µM | MIC (Staphylococcus aureus [15]): 0.39 µM (≈ 0.565 µg/mL)

CC[C@H](C)[C@H](NC(C)=O)C(=O)N[C@@H](CC(N)=O)C(=O)N[C@H]1CCNC(=O)[C@H](CC(C)C)NC(=O)[C@H](CC(C)C)NC(=O)[C@H](Cc2ccccc2)NC(=O)[C@H](C)NC1=O (Ac-IN[Dab]AFLL; lactam 3-C)
MIC (Streptococcus pneumoniae [1]): > 100 µM | pKd [16]: 2.63 | MIC [3]: > 100 µM | inhibition (Staphylococcus aureus [17]): Active | Activity (RAW264.7 [18]): inactive | CC50 (RAW264.7 [19]): > 125 µM | Activity (Erythrocyte): Toxic | deltaG (Homo sapiens [20]): -16.4 kcal/mol | deltaH [21]: -52.4 kcal/mol | inhibition [22]: inactive | inhibition (Staphylococcus aureus [23]): Active | Activity (Staphylococcus aureus [24]): Active | MIC (Streptococcus mutans [7]): > 100 µM | pKd [25]: 12.00 | deltaH [26]: 0.085 kcal/mol | Activity (Staphylococcus aureus [27]): Active | Activity (Staphylococcus aureus [28]): Active | inhibition [29]: Dose-Dependent Effect | inhibition (Staphylococcus aureus [30]): Active | Activity (Staphylococcus aureus [31]): Active | MIC [11]: > 100 µM | Activity (Staphylococcus aureus [32]): inactive | MIC (Staphylococcus aureus [12]): > 100 µM | inhibition [33]: inactive | deltaG (Homo sapiens [34]): -3.6 kcal/mol | MIC (Staphylococcus aureus [13]): > 100 µM | deltaH [35]: -1.43 kcal/mol | MIC (Streptococcus mutans [14]): > 100 µM | MIC (Escherichia coli): > 100 µM | MIC (Staphylococcus aureus [15]): > 100 µM | deltaG (Homo sapiens [36]): -9.36 kcal/mol | pKd [37]: 6.86
